In ChEMBL document CHEMBL1122420, “Parasympatholytic (anticholinergic) esters of the isomeric 2-tropanols. 2. Non-glycolates” (J Med Chem, 1983) one finds ED50 and LD50 data, which are given here for 16 compounds.

Some results are limits rather than exact numbers.

For series [1], the system named is Mus musculus. In words: Induction of mydriasis in mice following s.c. administration. The note with it: sc. The format is functional.
The nature of series [2]: LD50 in mice following i.v. administration. The format is organism-based. To be noted: mouse, in vivo, iv.

In general, ED50 refers to the midpoint of the dose-response relation. Read a low ED50 as an effect at a small dose. A word on the LD50: it is the dose at which mortality reaches 50%. Read a low LD50 as greater toxicity. Take `CN1C2CCC1[C@H](OC(=O)C(F)(c1ccccc1)c1ccccc1)CC2` (single isomer, unassigned; (+)): the 50% effect level in series [1] (ED50) was put at a dose of 0.25 mg/kg. The same compound had an LD50 in series [2] of 36 mg/kg.

Regarding `CN1[C@@H]2CC[C@H]1C[C@@H](OC(=O)C(CO)c1ccccc1)C2` (stereo not given in full) [ATROPINE], the ED50 in series [1] was found to be 0.061 mg/kg.

Regarding `CN1C2CCC1[C@H](OC(=O)C(OCc1ccccc1)(c1ccccc1)c1ccccc1)CC2.Cl` (single isomer, unassigned; (+)), the ED50 in series [1] is 5.6 mg/kg. In addition, the LD50 in series [2] was found to be 56 mg/kg.

In turn, `COc1cc(C(=O)O[C@H]2CCC3CCC2N3C)cc(OC)c1OC` (single isomer, unassigned; (-)) displayed an ED50 in series [1] of more than 10 mg/kg. For the same compound, the LD50 in series [2] turned out to be 18 mg/kg.

With `CN1C2CCC1[C@H](OC(=O)C13CC4CC(CC(C4)C1)C3)CC2` (single isomer, unassigned; (+)), the ED50 in series [1] is more than 10 mg/kg. The LD50 in series [2] is 32 mg/kg.

For `CN1C2CCC1[C@H](OC(=O)C(Cl)(c1ccccc1)c1ccccc1)CC2.Cl` (single isomer, unassigned; (+)), the 50% effect level in series [1] (ED50) was put at a dose of 0.03 mg/kg. This compound came in with an LD50 in series [2] of 22 mg/kg.

On to `CN1C2CCC1[C@H](OC(=O)C(CO)c1ccccc1)CC2` (single isomer, unassigned; (+)), for which it took a dose of 0.1 mg/kg to reach the 50% effect level in series [1] (ED50). In series [2], this compound displayed an LD50 of 50 mg/kg.

In series [1], `CN1C2CCC1[C@H](OC(=O)C1c3ccccc3CCc3ccccc31)CC2` (single isomer, unassigned; (+)) yielded an ED50 of 5.6 mg/kg. Besides, the LD50 in series [2] was determined as 32 mg/kg.

As for `COc1cc(C(=O)O[C@@H]2CCC3CCC2N3C)cc(OC)c1OC` (single isomer, unassigned; (+)), the ED50 in series [1] was 32 mg/kg. Moreover, in series [2], the LD50 stood at 56 mg/kg.

On to `CN1C2CCC1[C@H](OC(=O)c1cc(=O)c3ccccc3o1)CC2` (single isomer, unassigned; (+)), for which the ED50 in series [1] was more than 10 mg/kg. The same compound came in with an LD50 in series [2] of 100 mg/kg.

In series [1], `CN1[C@@H]2C[C@@H](OC(=O)[C@H](CO)c3ccccc3)C[C@H]1[C@@H]1O[C@@H]12` [SCOPOLAMINE] showed an ED50 of 0.012 mg/kg.

Take `CN1C2CCC1[C@@H](OC(=O)C1c3ccccc3CCc3ccccc31)CC2` (single isomer, unassigned; (-)): the ED50 in series [1] was more than 10 mg/kg. The compound further gave an LD50 in series [2] of 18 mg/kg.

Take `CN1C2CCC1[C@H](OC(=O)CC(O)(c1ccccc1)c1ccccc1)CC2` (single isomer, unassigned; (+)): the ED50 in series [1] is more than 10 mg/kg. The same compound came in with an LD50 in series [2] of 18 mg/kg.

In series [1], `CN1C2CCC1[C@H](OC(=O)N1c3ccccc3Sc3cccnc31)CC2` (single isomer, unassigned; (+)) displayed an ED50 of 5.6 mg/kg. Besides, the LD50 in series [2] was determined as 32 mg/kg.

`CCCC(C(=O)O[C@@H]1CCC2CCC1N2C)(c1ccccc1)c1ccccc1` (single isomer, unassigned; (+)) came in with an ED50 in series [1] of more than 10 mg/kg. Also, in series [2], the LD50 was found to be 18 mg/kg.

Consider `CCCOC(C(=O)O[C@@H]1CCC2CCC1N2C)(c1ccccc1)c1ccccc1` (single isomer, unassigned; (+)), for which, in series [1], the ED50 was determined as 0.94 mg/kg. The LD50 in series [2] came out at 22 mg/kg.
